Measurements taken from US20250275991A1, “ORAL COMPLEMENT FACTOR D INHIBITORS” (BioCryst Pharmaceuticals, Inc, priority 2019, published 2025).
One block for each compound: values may come before it.

Target: Factor D (Homo sapiens, UniProt P00746)
Experiment: Factor D esterolytic assay
Format: biochemical
Conditions: substrate Z-Lys-SBzl 1.29 mM, 100 mM HEPES, 500 mM NaCl, pH 7.5, 10% DMSO, tested a minimum of three times
Experimental: The IC50 value of a compound (i.e., the concentration of the compound that inhibits 50% of the enzymatic activity) was calculated according to the procedure reported in U.S. Pat. No. 6,653,340 B1, e.g., column 74 (incorporated by reference).
Specifically, the compounds were dissolved in a stock solution of DMSO at 10.0 or 100 mM. A portion of this stock solution was added to assay buffer in a final volume of 50 μL. Controls included buffer alone and enzyme solutions to which DMSO was added. Substrate was added to the reaction wells immediately or after incubation at room temperature. The reaction rates were measured spectrophotometrically by the generation of product at 405 nm for 600 sec. Background absorbance at 690 nm was measured and subtracted from the absorbance at 405 nm for each well.
The reaction rate for enzyme alone was compared to the rate of enzyme in the presence of inhibitor and the percent inhibition was calculated as shown below: […]
An established esterolytic assay for the measurement of Factor D activity and inhibition of Factor D activity was used (Kam, C. M.; McRae, B. J.; Harper, J. W.; Niemann, M. A.; Volanakis, J. E.; Powers, J. C. Human complement proteins D, C2, and B Active site mapping with peptide thioester substrates. J Biol. Chem. 1987, 262, 3444-3451). For this assay Z-Lys-SBzl, 1.29 mM (Kim, S.; Narayana, S. V. L; Volanakis, J. E. Mutational analysis of the substrate binding site of human complement Factor D. Biochemistry. 1994, 33, 14393-14399.) was used as the substrate for Factor D ([…]). Hydrolysis of this compound by Factor D liberated a free sulfhydryl group which is then reacted with 5,5′-dithiobis(2nitrobenzoic acid) producing an intense yellow color (Habeeb, A. F. S. A. Reaction of protein sulfhydryl groups with Ellman's Reagent. Methods in Enzymol. 1976, 25, 457-464). The assays were performed in 96 well microtiter plates and rates of hydrolysis were monitored at 405 nm on a Biotek Synergy H1 plate reader. Hydrolysis rates were reported as change in mOD/min. The assay was conducted in 100 mM HEPES, 500 mM NaCl, pH 7.5 containing 10% DMSO in a final volume of 50 μL per well.
An IC50, a compound concentration which inhibits 50% of the enzymatic activity, was calculated. Compounds in the examples were tested a minimum of three times.

Chain of Factor D (P00746 26-253): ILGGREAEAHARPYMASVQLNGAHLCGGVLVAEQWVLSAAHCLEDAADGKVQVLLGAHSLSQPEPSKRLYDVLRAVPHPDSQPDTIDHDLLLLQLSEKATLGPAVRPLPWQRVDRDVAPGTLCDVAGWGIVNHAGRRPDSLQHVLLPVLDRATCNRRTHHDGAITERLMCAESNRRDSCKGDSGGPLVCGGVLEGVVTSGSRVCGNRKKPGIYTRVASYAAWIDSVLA

Structure (SMILES): CCC(N)c1cc(-c2cc(COc3ccccc3CC(=O)O)cc3ccoc23)cs1 (stereo not shown) [Compound 1j, 2-(2-((7-(5-(1-aminopropyl)thiophen-3-yl)benzofuran-5-yl)methoxy)phenyl)acetic acid]
- IC50: 1000 to 10000 nM

Structure (SMILES): CC(C)C(N)c1cccc(-c2cc(COc3ccccc3CC(=O)O)cc3ccoc23)c1 (stereo not shown) [Compound 3c, 2-(2-((7-(3-(1-amino-2-methylpropyl)phenyl)benzofuran-5-yl)methoxy)phenyl)acetic acid]
- IC50: 1000 to 10000 nM

Structure (SMILES): CC(N)c1cc(-c2cc(COc3ccccc3CC(=O)O)cc3ccoc23)cs1 (stereo not shown) [Compound 4c, 2-(2-((7-(5-(1-aminoethyl)thiophen-3-yl)benzofuran-5-yl)methoxy)phenyl)acetic acid]
- IC50: > 10000 nM

Structure (SMILES): CC(N)c1nc(-c2cc(COc3ccccc3CC(=O)O)cc3ccoc23)cs1 (stereo not shown) [Compound 7e, 2-(2-((7-(2-(1-aminoethyl)thiazol-4-yl)benzofuran-5-yl)methoxy)phenyl)acetic acid]
- IC50: 1000 to 10000 nM

Structure (SMILES): NCc1cc(-c2cc(COc3ccccc3CC(=O)O)cc3ccoc23)c[nH]1 [Compound 8g, 2-(2-((7-(5-(aminomethyl)-1H-pyrrol-3-yl)benzofuran-5-yl)methoxy)phenyl)acetic acid]
- IC50: 1000 to 10000 nM

Structure (SMILES): NCc1cccc(-c2cc(COc3cc(C(=O)O)ccc3CC(=O)O)cc3ccoc23)c1 [Compound 9d, 3-((7-(3-(aminomethyl)phenyl)benzofuran-5-yl)methoxy)-4-(carboxymethyl)benzoic acid]
- IC50: < 1000 nM

Structure (SMILES): NCc1cccc(-c2cc(COc3cc(OC(F)(F)F)ccc3CC(=O)O)cc3ccoc23)c1 [Compound 10d, 2-(2-((7-(3-(aminomethyl)phenyl)benzofuran-5-yl)methoxy)-4-(trifluoromethoxy)phenyl)acetic acid]
- IC50: < 1000 nM

Structure (SMILES): NCc1nccc(-c2cc(COc3ccc(F)cc3CC(=O)O)cc3c(C(F)(F)F)coc23)c1F [Compound 11m, 2-(2-((7-(2-(aminomethyl)-3-fluoropyridin-4-yl)-3-(trifluoromethyl)benzofuran-5-yl)methoxy)-5-fluorophenyl)acetic acid]
- IC50: < 1000 nM

Structure (SMILES): COCc1cc2cc(COc3cc(C(C)=O)ccc3CC(=O)O)cc(-c3cccc(CN)c3)c2o1 [Compound 12j, 2-(4-acetyl-2-((7-(3-(aminomethyl)phenyl)-2-(methoxymethyl)benzofuran-5-yl)methoxy)phenyl)acetic acid]
- IC50: < 1000 nM

Structure (SMILES): CC(=O)c1ccc(CC(=O)O)c(OCc2cc(-c3ccnc(CN)c3F)c3occ(C(F)(F)F)c3c2)c1 [Compound 13f, 2-(4-acetyl-2-((7-(2-(aminomethyl)-3-fluoropyridin-4-yl)-3-(trifluoromethyl)benzofuran-5-yl)methoxy)phenyl)acetic acid]
- IC50: < 1000 nM

Structure (SMILES): NCc1cccc(-c2cc(COc3ccc(F)cc3CC(=O)O)cc3cc(F)oc23)c1 [Compound 16f, 2-(2-((7-(3-(aminomethyl)phenyl)-2-fluorobenzofuran-5-yl)methoxy)-5-fluorophenyl)acetic acid]
- IC50: < 1000 nM

Structure (SMILES): NCc1nccc(-c2cc(COc3ccc(F)cc3CC(=O)O)cc3cc(F)oc23)c1F [Compound 17d, 2-(2-((7-(2-(aminomethyl)-3-fluoropyridin-4-yl)-2-fluorobenzofuran-5-yl)methoxy)-5-fluorophenyl)acetic acid]
- IC50: < 1000 nM

The remaining lines, values ahead:

- IC50: < 1000 nM
Structure (SMILES): COc1ccc(CC(=O)O)c(OCc2cc(-c3cccc(C(N)CF)c3)c3occc3c2)c1 (single isomer, unassigned; (+)) [Compound 14k, (+)-2-(2-((7-(3-(1-amino-2-fluoroethyl)phenyl)benzofuran-5-yl)methoxy)-4-methoxyphenyl)acetic acid]

- IC50: < 1000 nM
Structure (SMILES): NC(CF)c1cccc(-c2cc(COc3cc(F)ccc3CC(=O)O)cc3ccoc23)c1 (single isomer, unassigned; (+)) [Compound 15f, (+)-2-(2-((7-(3-(1-amino-2-fluoroethyl)phenyl)benzofuran-5-yl)methoxy)-4-fluorophenyl)acetic acid]

- IC50: < 1000 nM
Structure (SMILES): NCc1cccc(-c2cc(COc3ccccc3C(NC(=O)C3CC3)C(=O)O)cc3ccoc23)c1 (single isomer, unassigned; (+)) [Compound 52f, (+)-2-(2-((7-(3-(aminomethyl)phenyl)benzofuran-5-yl)methoxy)phenyl)-2-(cyclopropanecarboxamido)acetic acid]

- IC50: < 1000 nM
Structure (SMILES): CCOC(=O)NC(C)c1ccc(CC(=O)O)c(OCc2cc(-c3cccc(CN)c3)c3occc3c2)c1 (single isomer, unassigned; (+)) [Compound 54g, (+)-2-(2-((7-(3-(aminomethyl)phenyl)benzofuran-5-yl)methoxy)-4-(1-(ethoxycarbonylamino)ethyl)phenyl)acetic acid]

- IC50: < 1000 nM
Structure (SMILES): CC(N)c1ccc(CC(=O)O)c(OCc2cc(-c3cccc(CN)c3)c3occc3c2)c1 (single isomer, unassigned; (+)) [Compound 60a, (+)-2-(4-(1-aminoethyl)-2-((7-(3-(aminomethyl)phenyl)benzofuran-5-yl)methoxy)phenyl)acetic acid]

- IC50: < 1000 nM
Structure (SMILES): CC(Oc1ccccc1CC(=O)O)c1cc(-c2cccc(CN)c2)c2occc2c1 (single isomer, unassigned; (+)) [Compound 77f, (+)-2-(2-(1-(7-(3-(aminomethyl)phenyl)benzofuran-5-yl)ethoxy)phenyl)acetic acid]

- IC50: < 1000 nM
Structure (SMILES): NCc1cccc(-c2cc(COc3ccccc3C(NC(=O)C3CC3)C(=O)O)cc3ccoc23)c1 (single isomer, unassigned; (-)) [Compound 51f, (−)-2-(2-((7-(3-(aminomethyl)phenyl)benzofuran-5-yl)methoxy)phenyl)-2-(cyclopropanecarboxamido)acetic acid]

- IC50: < 1000 nM
Structure (SMILES): CCOC(=O)NC(C)c1ccc(CC(=O)O)c(OCc2cc(-c3cccc(CN)c3)c3occc3c2)c1 (single isomer, unassigned; (-)) [Compound 55e, (−)-2-(2-((7-(3-(aminomethyl)phenyl)benzofuran-5-yl)methoxy)-4-(1-((ethoxycarbonyl)amino)ethyl)phenyl)acetic acid]

- IC50: < 1000 nM
Structure (SMILES): CC(N)c1ccc(CC(=O)O)c(OCc2cc(-c3cccc(CN)c3)c3occc3c2)c1 (single isomer, unassigned; (-)) [Compound 61a, (−)-2-(4-(1-aminoethyl)-2-((7-(3-(aminomethyl)phenyl)benzofuran-5-yl)methoxy)phenyl)acetic acid]

- IC50: < 1000 nM
Structure (SMILES): CC(Oc1ccccc1CC(=O)O)c1cc(-c2cccc(CN)c2)c2occc2c1 (single isomer, unassigned; (-)) [Compound 77g, (−)-2-(2-(1-(7-(3-(aminomethyl)phenyl)benzofuran-5-yl)ethoxy)phenyl)acetic acid]

- IC50: < 1000 nM
Structure (SMILES): CCC(N)c1cccc(-c2cc(COc3ccccc3CC(=O)O)cc3ccoc23)c1 (stereo not shown) [Compound 2f, 2-(2-((7-(3-(1-aminopropyl)phenyl)benzofuran-5-yl)methoxy)phenyl)acetic acid]

- IC50: < 1000 nM
Structure (SMILES): NCc1nc(-c2cc(COc3ccccc3CC(=O)O)cc3ccoc23)cs1 [Compound 5e, 2-(2-((7-(2-(aminomethyl)thiazol-4-yl)benzofuran-5-yl)methoxy)phenyl)acetic acid]

- IC50: < 1000 nM
Structure (SMILES): NCc1csc(-c2cc(COc3ccccc3CC(=O)O)cc3ccoc23)n1 [Compound 6e, 2-(2-((7-(4-(aminomethyl)thiazol-2-yl)benzofuran-5-yl)methoxy)phenyl)acetic acid]
